Patent US20150191469A1, “COMPOUNDS AND METHODS FOR TREATING HIV” (priority 2012, published 2015)

system: HIV; experiment: MT4 assay: antiviral HIV activity (cell protection, cell titer glo readout at 96 hours); type: cell-based; settings: Human immunodeficiency virus 1, MT4, 96 h, MT4 cells, cell titer glo readout at 96 hours, 10 point dose response; read-out: HIV MT4 Assay IC50
Experimental: Antiviral HIV activity and cytotoxicity values for compounds of the invention from Table 1 were measured in parallel in the HTLV-1 transformed cell line MT-4 based on the method previously described (Hazen et al., 2007, In vitro antiviral activity of the novel, tyrosyl-based human immunodeficiency virus (HIV) type 1 protease inhibitor brecanavir (GW640385) in combination with other antiretrovirals and against a panel of protease inhibitor-resistant HIV (Hazen et al., “In vitro antiviral activity of the novel, tyrosyl-based human immunodeficiency virus (HIV) type 1 protease inhibitor brecanavir (GW640385) in combination with other antiretrovirals and against a panel of protease inhibitor-resistant HIV”, Antimicrob. Agents Chemother. 2007, 51: 3147-3154; and Pauwels et al., “Sensitive and rapid assay on MT-4 cells for the detection of antiviral compounds against the AIDS virus”, J. of Virological Methods 1987, 16: 171-185).
Luciferase activity was measured 96 hours later by adding a cell titer glo (Promega, Madison, Wis.). Percent inhibition of cell protection data was plotted relative to no compound control. Under the same condition, cytotoxicity of the compounds was determined using cell titer Glo™ (Promega, Madison, Wis.). IC50s were determined from a 10 point dose response curve using 3-4-fold serial dilution for each compound, which spans a concentration range >1000 fold.
These values are plotted against the molar compound concentrations using the standard four parameter logistic equation:
y=((Vmax*x̂n)/(K̂n+x̂n))+Y2
Y2=minimum y n=slope factor
Vmax=maximum y x=compound concentration [M]

Row | Structure (SMILES) | IC50 [nM]
1 | Cc1nc2c(cc(-c3ccnc(-c4ccc5cn(C)nc5c4)c3)n2C)c(-c2cc(F)c3c(c2C)CCCO3)c1[C@H](OC(C)(C)C)C(=O)O (atropisomer, axis not shown) [Example 53] | 2.1
2 | Cc1nc2c(cc(-c3ccnc(-c4ccc5c(cnn5C5CC5)c4)c3)n2C)c(-c2cc(F)c3c(c2C)CCCO3)c1[C@H](OC(C)(C)C)C(=O)O (atropisomer, axis not shown) [Example 54] | 4.6
3 | Cc1nc2c(cc(-c3ccnc(-c4ccc5[nH]c(=O)[nH]c5c4)c3)n2C)c(-c2cc(F)c3c(c2C)CCCO3)c1[C@H](OC(C)(C)C)C(=O)O (atropisomer, axis not shown) [Example 55] | 410
4 | Cc1nc2c(cc(-c3ccnc(-c4ccc5c(c4)NCC5)c3)n2C)c(-c2cc(F)c3c(c2C)CCCO3)c1[C@H](OC(C)(C)C)C(=O)O (atropisomer, axis not shown) [Example 56] | 15
5 | Cc1nc2c(cc(-c3ccnc(-c4ccc5c(cnn5C)c4)c3)n2C)c(-c2cc(F)c3c(c2C)CCCO3)c1[C@H](OC(C)(C)C)C(=O)O (atropisomer, axis not shown) [Example 57] | 1.4
6 | Cc1nc2c(cc(-c3ccnc(-c4cccc5c4cnn5C)c3)n2C)c(-c2cc(F)c3c(c2C)CCCO3)c1[C@H](OC(C)(C)C)C(=O)O (atropisomer, axis not shown) [Example 58] | 5.4
7 | Cc1nc2c(cc(-c3ccnc(-c4cccc5cnn(C)c45)c3)n2C)c(-c2cc(F)c3c(c2C)CCCO3)c1[C@H](OC(C)(C)C)C(=O)O (atropisomer, axis not shown) [Example 59] | 16
8 | Cc1nc2c(cc(-c3ccnc(-c4ccc5c(c4)nnn5C)c3)n2C)c(-c2cc(F)c3c(c2C)CCCO3)c1[C@H](OC(C)(C)C)C(=O)O (atropisomer, axis not shown) [Example 60] | 3.7
9 | Cc1nc2c(cc(-c3ccnc(-c4cnc5[nH]ccc5c4)c3)n2C)c(-c2cc(F)c3c(c2C)CCCO3)c1[C@H](OC(C)(C)C)C(=O)O (atropisomer, axis not shown) [Example 62] | 2.9
10 | Cc1nc2c(cc(-c3ccnc(-n4ccnc4C)c3)n2C)c(-c2cc(F)c3c(c2C)CCCO3)c1[C@H](OC(C)(C)C)C(=O)O (atropisomer, axis not shown) [Example 63] | 15.4
11 | Cc1nc2c(cc(-c3ccnc(-c4cnc5c(cnn5C)c4)c3)n2C)c(-c2cc(F)c3c(c2C)CCCO3)c1[C@H](OC(C)(C)C)C(=O)O (atropisomer, axis not shown) [Example 66] | 8.6
12 | Cc1nc2c(cc(-c3ccnc(-c4ccn5cc(C(F)(F)F)nc5c4)c3)n2C)c(-c2cc(F)c3c(c2C)CCCO3)c1[C@H](OC(C)(C)C)C(=O)O (atropisomer, axis not shown) [Example 67] | 45
13 | Cc1nc2c(cc(-c3ccnc(-c4ccc5[nH]ncc5c4C)c3)n2C)c(-c2cc(F)c3c(c2C)CCCO3)c1[C@H](OC(C)(C)C)C(=O)O (atropisomer, axis not shown) [Example 68] | 6.4
14 | Cc1nc2c(cc(-c3ccnc(-c4ccc(N(C)C)nc4)c3)n2C)c(-c2cc(F)c3c(c2C)CCCO3)c1[C@H](OC(C)(C)C)C(=O)O (atropisomer, axis not shown) [Example 69] | 4.8
15 | Cc1nc2c(cc(-c3ccnc(-c4cnc(N5CCN(C)CC5)nc4)c3)n2C)c(-c2cc(F)c3c(c2C)CCCO3)c1[C@H](OC(C)(C)C)C(=O)O (atropisomer, axis not shown) [Example 70] | 3.1
16 | Cc1nc2c(cc(-c3ccnc(-c4cnc5c(c4)CCCN5)c3)n2C)c(-c2cc(F)c3c(c2C)CCCO3)c1[C@H](OC(C)(C)C)C(=O)O (atropisomer, axis not shown) [Example 72] | 4.6
17 | Cc1nc2c(cc(-c3ccnc(N4CCn5c(C)nnc5C4)c3)n2C)c(-c2cc(F)c3c(c2C)CCCO3)c1[C@H](OC(C)(C)C)C(=O)O (atropisomer, axis not shown) [Example 79] | 645
18 | Cc1nc2c(cc(-c3ccnc(N4CCC(C)CC4)c3)n2C)c(-c2cc(F)c3c(c2C)CCCO3)c1[C@H](OC(C)(C)C)C(=O)O (atropisomer, axis not shown) [Example 80] | 21.3
19 | Cc1nc2c(cc(-c3ccnc(NC4COC4)c3)n2C)c(-c2cc(F)c3c(c2C)CCCO3)c1[C@H](OC(C)(C)C)C(=O)O (atropisomer, axis not shown) [Example 81] | 2280
20 | Cc1nc2c(cc(-c3ccnc(N4CCN(C(=O)c5ccccc5)CC4)c3)n2C)c(-c2cc(F)c3c(c2C)CCCO3)c1[C@H](OC(C)(C)C)C(=O)O (atropisomer, axis not shown) [Example 82] | 47.7

Row | Structure (SMILES) | IC50 [nM]
21 | Cc1nc2c(cc(-c3ccnc(N4CCN(c5ccccc5)CC4)c3)n2C)c(-c2cc(F)c3c(c2C)CCCO3)c1[C@H](OC(C)(C)C)C(=O)O (atropisomer, axis not shown) [Example 83] | 52.5
22 | Cc1nc2c(cc(-c3ccnc(N4CCN(c5nccs5)CC4)c3)n2C)c(-c2cc(F)c3c(c2C)CCCO3)c1[C@H](OC(C)(C)C)C(=O)O (atropisomer, axis not shown) [Example 84] | 14.7
23 | Cc1nc2c(cc(-c3ccnc(N4CCCN(C5COC5)CC4)c3)n2C)c(-c2cc(F)c3c(c2C)CCCO3)c1[C@H](OC(C)(C)C)C(=O)O (atropisomer, axis not shown) [Example 85] | 12.7
24 | COC1CCN(c2cc(-c3cc4c(-c5cc(F)c6c(c5C)CCCO6)c([C@H](OC(C)(C)C)C(=O)O)c(C)nc4n3C)ccn2)CC1 (atropisomer, axis not shown) [Example 86] | 13.2
25 | Cc1nc2c(cc(-c3ccnc(N4CCC(N(C)C)CC4)c3)n2C)c(-c2cc(F)c3c(c2C)CCCO3)c1[C@H](OC(C)(C)C)C(=O)O (atropisomer, axis not shown) [Example 87] | 42.8
26 | Cc1nc2c(cc(-c3ccnc(N4CCN(c5ccncc5)CC4)c3)n2C)c(-c2cc(F)c3c(c2C)CCCO3)c1[C@H](OC(C)(C)C)C(=O)O (atropisomer, axis not shown) [Example 88] | 13.4
27 | CC(=O)N1CCN(c2cc(-c3cc4c(-c5cc(F)c6c(c5C)CCCO6)c([C@H](OC(C)(C)C)C(=O)O)c(C)nc4n3C)ccn2)CC1 (atropisomer, axis not shown) [Example 89] | 25
28 | Cc1nc2c(cc(-c3ccnc(N4CCN(c5ccccn5)CC4)c3)n2C)c(-c2cc(F)c3c(c2C)CCCO3)c1[C@H](OC(C)(C)C)C(=O)O (atropisomer, axis not shown) [Example 90] | 13.3
29 | Cc1nc2c(cc(-c3ccnc(N4CCN(C5CCCC5)CC4)c3)n2C)c(-c2cc(F)c3c(c2C)CCCO3)c1[C@H](OC(C)(C)C)C(=O)O (atropisomer, axis not shown) [Example 91] | 12.2
30 | Cc1nc2c(cc(-c3ccnc(N4CCN(S(C)(=O)=O)CC4)c3)n2C)c(-c2cc(F)c3c(c2C)CCCO3)c1[C@H](OC(C)(C)C)C(=O)O (atropisomer, axis not shown) [Example 92] | 19.6
31 | Cc1nc2c(cc(-c3ccnc(N4CCN(c5ncccn5)CC4)c3)n2C)c(-c2cc(F)c3c(c2C)CCCO3)c1[C@H](OC(C)(C)C)C(=O)O (atropisomer, axis not shown) [Example 93] | 23.9
32 | Cc1nc2c(cc(-c3ccnc(N4CCCN(C)CC4)c3)n2C)c(-c2cc(F)c3c(c2C)CCCO3)c1[C@H](OC(C)(C)C)C(=O)O (atropisomer, axis not shown) [Example 94] | 50.8
33 | CC(=O)N1CCCN(c2cc(-c3cc4c(-c5cc(F)c6c(c5C)CCCO6)c([C@H](OC(C)(C)C)C(=O)O)c(C)nc4n3C)ccn2)CC1 (atropisomer, axis not shown) [Example 95] | 52.4
34 | Cc1nc2c(cc(-c3ccnc(N4CCCNCC4)c3)n2C)c(-c2cc(F)c3c(c2C)CCCO3)c1[C@H](OC(C)(C)C)C(=O)O (atropisomer, axis not shown) [Example 96] | 350
35 | Cc1nc2c(cc(-c3ccnc(N4CCCN(S(C)(=O)=O)CC4)c3)n2C)c(-c2cc(F)c3c(c2C)CCCO3)c1[C@H](OC(C)(C)C)C(=O)O (atropisomer, axis not shown) [Example 97] | 16.5
36 | Cc1nc2c(cc(-c3ccnc(N4CCCN(C(C)C)CC4)c3)n2C)c(-c2cc(F)c3c(c2C)CCCO3)c1[C@H](OC(C)(C)C)C(=O)O (atropisomer, axis not shown) [Example 98] | 16.2
37 | Cc1nc2c(cc(-c3ccnc(N4C[C@H]5CC[C@@H]4C5)c3)n2C)c(-c2cc(F)c3c(c2C)CCCO3)c1[C@H](OC(C)(C)C)C(=O)O (atropisomer, axis not shown) [Example 99] | 14.8
38 | CC1=CCN(c2cc(-c3cc4c(-c5cc(F)c6c(c5C)CCCO6)c([C@H](OC(C)(C)C)C(=O)O)c(C)nc4n3C)ccn2)CC1 (atropisomer, axis not shown) [Example 100] | 14.2
39 | Cc1nc2c(cc(-c3ccnc(N4CCCN(C(=O)C5CCCC5)CC4)c3)n2C)c(-c2cc(F)c3c(c2C)CCCO3)c1[C@H](OC(C)(C)C)C(=O)O (atropisomer, axis not shown) [Example 101] | 67.4
40 | Cc1nc2c(cc(-c3ccnc(N4CCCN(C(=O)C(C)C)CC4)c3)n2C)c(-c2cc(F)c3c(c2C)CCCO3)c1[C@H](OC(C)(C)C)C(=O)O (atropisomer, axis not shown) [Example 102] | 45
